Reference: patent US7033509B2 (priority 2000, dated 2006)
Several values for one entry are separate records, joined by “and”; a condition that tells them apart may be missing. Identical values can stand only once. Like-named read-outs stand apart in the source and are kept apart here.

Key:
[1] = system: fungi on the surface of peach; format: cell-based
[2] = system: fungi on the surface of lettuce; test: Lettuce (L) laboratory dipping, fungi; format: cell-based; details: 10, 20, 30 ppm iodine
[3] = system: bacteria on the surface of potato; format: cell-based
[4] = system: fungi on the surface of potato; format: cell-based
[5] = system: bacteria on the surface of lettuce; format: cell-based
[6] = system: fungi on the surface of apple; format: cell-based
[7] = system: bacteria on the surface of peach; format: cell-based
[8] = system: bacteria on the surface of apple; format: cell-based
[9] = system: bacteria on the surface of nectarine; test: Nectarine (L) laboratory dipping, bacteria; format: cell-based; details: concentrations of 3, 10 & 30 ppm iodine used
[10] = system: bacteria on the surface of lettuce; test: Lettuce (L) laboratory dipping, bacteria; format: cell-based; details: 10, 20, 30 ppm iodine
[11] = system: bacteria on the surface of rockmelon; format: cell-based
[12] = system: bacteria on the surface of strawberry; format: cell-based
[13] = system: bacteria on the surface of tomato; test: Tomato (L) laboratory dipping, bacteria; format: cell-based; details: 10, 20, 30 ppm iodine
fungi on bean sprouts = test: Bean sprouts (ISU), fungi; format: cell-based; details: 10, 20, 30 ppm iodine
[14] = system: fungi on the surface of orange; test: Orange (L) laboratory dipping, fungi; format: cell-based; details: concentrations of 3, 10 & 30 ppm iodine used
[15] = system: fungi on the surface of avocado; format: cell-based
[16] = system: bacteria on the surface of orange; test: Orange (L) laboratory dipping, bacteria; format: cell-based; details: concentrations of 3, 10 & 30 ppm iodine used
[17] = system: naturally occurring surface organisms on fruits and vegetables; test: Dipping time effect on efficacy (potatoes, oranges); format: cell-based, bacteria and fungi; details: iodine dips, one to four minutes
[18] = system: fungi on the surface of lettuce; format: cell-based
Escherichia coli = details: compared with chlorine, especially at the higher temperature and pH values; cited from earlier work
[19] = system: bacteria on the surface of potato; test: Potato (L) laboratory dipping, bacteria; format: cell-based; details: concentrations of 3, 10 & 30 ppm iodine used
bacteria on bean sprouts = test: Bean sprouts (ISU), bacteria; format: cell-based; details: 10, 20, 30 ppm iodine
[20] = system: fungi on the surface of rockmelon; format: cell-based
[21] = system: bacteria on the surface of avocado; format: cell-based
[22] = system: fungi on the surface of nectarine; test: Nectarine (L) laboratory dipping, fungi; format: cell-based; details: concentrations of 3, 10 & 30 ppm iodine used
[23] = system: bacteria and fungi found on fresh fruit and vegetables; test: Summary of efficacy results: comparison bacteria/fungi and iodine/chlorine; format: cell-based
[24] = system: fungi on the surface of tomato; test: Tomato (L) laboratory dipping, fungi; format: cell-based; details: 10, 20, 30 ppm iodine
[25] = system: fungi on the surface of potato; test: Potato (L) laboratory dipping, fungi; format: cell-based; details: concentrations of 3, 10 & 30 ppm iodine used
[26] = system: fungi on the surface of strawberry; format: cell-based

SMILES: II
- Fungi—dose for ~1.5 log10 reduction [1]: 30 ppm
- Fungi—dose for ~1.5 log10 reduction [2]: >30 ppm
- Bacterial population per cm^2 Actual count [3]: 370 per cm^2 and 260 per cm^2 and 249 per cm^2
- Bacterial population per cm^2 Log10 count [3]: 2.54 log10 units and 2.34 log10 units and 2.38 log10 units
- Bacterial population per cm^2 Log10 reduction [3]: 0.39 ab log10 units and 0.58 b log10 units and 0.54 b log10 units
- Bacteria—dose for ~1.5 log10 reduction [3]: >30 ppm
- Fungal population per cm^2 Actual count [4]: 2 per cm^2 and 3 per cm^2
- Fungi—dose for ~1.5 log10 reduction [4]: 10 ppm
- Bacteria—dose for ~1.5 log10 reduction [5]: 20 ppm
- Fungi—dose for ~1.5 log10 reduction [6]: 10 ppm
- Bacteria—dose for ~1.5 log10 reduction [7]: 10 ppm
- Bacteria—dose for ~1.5 log10 reduction [8]: 10 ppm
- Bacteria—dose for ~1.5 log10 reduction [9]: 3.3 ppm
- Bacteria—dose for ~1.5 log10 reduction [10]: 30 ppm
- Bacterial population per cm^2 Actual count [11]: 19,514 per cm^2 and 14,456 per cm^2 and 10,028 per cm^2
- Bacterial population per cm^2 Log10 count [11]: 4.26 log10 units and 4.15 log10 units and 3.98 log10 units
- Bacterial population per cm^2 Log10 reduction [11]: 0.83 b log10 units and 0.93 bc log10 units and 1.10 cd log10 units
- Bacteria—dose for ~1.5 log10 reduction [11]: >30 ppm
- Bacteria—dose for ~1.5 log10 reduction [12]: >30 ppm
- Bacteria—dose for ~1.5 log10 reduction [13]: 20 ppm
- Fungi—dose for ~1.5 log10 reduction (fungi on bean sprouts): 30 ppm
- Fungi—dose for ~1.5 log10 reduction [14]: 30 ppm
- Fungi—dose for ~1.5 log10 reduction [15]: 20 ppm
- Bacteria—dose for ~1.5 log10 reduction [16]: 30 ppm
- effect of dip time on effectiveness [17]: equivalent in effectiveness to doubling the dip concentration
- Fungal population per cm^2 Log10 count [18]: −0.12 log10 units and −0.35 log10 units
- Fungi—dose for ~1.5 log10 reduction [18]: 10 ppm
- efficiency for the control of Escherichia coli in dirty water (Escherichia coli): greater than that of chlorine
- Bacteria—dose for ~1.5 log10 reduction [19]: >30 ppm
- Bacteria—dose for ~1.5 log10 reduction (bacteria on bean sprouts): 30 ppm
- Fungi—dose for ~1.5 log10 reduction [20]: 20 ppm
- Bacteria—dose for ~1.5 log10 reduction [21]: 10 ppm
- Fungi—dose for ~1.5 log10 reduction [22]: 10 ppm
- Better Control of Bacteria/Fungi ([23]; Apples (ISU)): Fungi
- Better control by iodine/chlorine ([23]; Apples (ISU)): Iodine
- Better Control of Bacteria/Fungi ([23]; Avocado (ISU)): Bacteria
- Better control by iodine/chlorine ([23]; Avocado (ISU)): Iodine
- Better control by iodine/chlorine ([23]; Bean sprouts (ISU)): Iodine
- Better Control of Bacteria/Fungi ([23]; Lettuce (ISU)): Fungi
- Better control by iodine/chlorine ([23]; Lettuce (ISU)): Iodine
- Better Control of Bacteria/Fungi ([23]; Lettuce (L)): Bacteria
- Better control by iodine/chlorine ([23]; Lettuce (L)): Chlorine
- Better Control of Bacteria/Fungi ([23]; Nectarine (L)): Bacteria
- Better control by iodine/chlorine ([23]; Nectarine (L)): Iodine
- Better Control of Bacteria/Fungi ([23]; Orange (L)): Bacteria
- Better control by iodine/chlorine ([23]; Orange (L)): Chlorine
- Better Control of Bacteria/Fungi ([23]; Peach (L)): Bacteria
- Better control by iodine/chlorine ([23]; Peach (L)): Iodine
- Better Control of Bacteria/Fungi ([23]; Potato (ISU)): Fungi
- Better control by iodine/chlorine ([23]; Potato (ISU)): Iodine
- Better Control of Bacteria/Fungi ([23]; Potato (L)): Fungi
- Better control by iodine/chlorine ([23]; Potato (L)): Iodine
- Better Control of Bacteria/Fungi ([23]; Rockmelon (ISU)): Fungi
- Better control by iodine/chlorine ([23]; Rockmelon (ISU)): Same effectiveness
- Better Control of Bacteria/Fungi ([23]; Strawberry (ISU)): Fungi
- Better control by iodine/chlorine ([23]; Strawberry (ISU)): Iodine
- Better Control of Bacteria/Fungi ([23]; Tomato (L)): Fungi
- Better control by iodine/chlorine ([23]; Tomato (L)): Iodine
- effectiveness compared with an equivalent concentration of chlorine ([23]; over the range of products and concentrations used): considerably more effective
- Fungi—dose for ~1.5 log10 reduction [24]: 20 ppm
- Fungi—dose for ~1.5 log10 reduction [25]: >30 ppm
- Fungi—dose for ~1.5 log10 reduction [26]: 30 ppm
